Results from PMC7367283, “A PIP2 substitute mediates voltage sensor-pore coupling in KCNQ activation” (Communications Biology, 2020).
“And” between values parts separate entries of the source, which are not always exact repeats. Equal values may be shown once.

Biological target: IKs (KCNQ1 + KCNE1) (Homo sapiens, UniProt P51787)
Experiment: Two-electrode voltage clamp of IKs channels expressed in Xenopus oocytes
Format: cell-based
Parameters: key to G/Gcontrol(max): conductance / max control conductance (control max = 1)
Details: for Current: Fig. 4g; for ∆V1/2 of activation induced by CP1 (mean): Fig. 4i dose response; for G/Gcontrol(max): Fig. 4h
From the text: Our previous studies have shown that the VSD of KCNQ1 activates to an intermediate state (I state) and an activated state (A state) upon membrane depolarization, and the pore can open when VSD is at either the intermediate (IO state) or activated (AO state)[23],[24]. The association of the auxiliary subunit KCNE1 with KCNQ1 affects VSD-pore coupling to suppress the IO state and enhance the AO state. Correspondingly, the association of KCNE1 also increases the PIP2 sensitivity of the channel[24],[37]. […] The most prominent effect of CP1 is to dramatically slow the deactivation of IKs, such that at 2 µM CP1, it took a 100-s interval at −120 mV for all the channels to deactivate from their previous activation (Fig. 4a). The application of 2 µM CP1 shifted the G–V relation to more negative voltages by ~13 mV (Fig. 4b). […] A fraction of the constitutively open channels might have been open during the previous test pulses and not deactivated during the shorter and less-hyperpolarized interval pulse to cause a current accumulation. […] In higher concentrations of CP1, we were not able to suppress the constitutive opening of KCNQ1 channels even with long and negative interval voltages, so that we used 20-s and −80-mV interval pulses in the recordings (Fig. 4e). […] In comparison with KCNQ1 expressed alone, CP1 caused a larger shift of the G–V relationship when KCNE1 was co-expressed (Fig. 4i). Since the IKs currents were difficult to measure accurately at high CP1 concentrations, we were unable to determine the EC50 of the channel response to CP1.
Fig. 4 Effects of CP1 on IKs channels. a, b IKs currents in the absence (left) and presence of 2 µM CP1 (right) recorded with 100-s and −120-mV interval pulses between testing voltages. Holding potential: −80 mV; testing potential: −120 to +80 mV; returning potential: −40 mV (a). G–V relations (b). c, d IKs recorded at the same conditions as in (a), except for the interval pulses, was 20 s at −80 mV. e, f IKs in the absence or presence of 10 µM CP1. The voltage protocol was the same as in (b). g, h Current (g) and relative conductance (h) increases of IKs channels by 10 µM CP1. In h, the measured conductance in CP1 at all voltages was divided by the maximum measured conductance in control, and then normalized with the maximum measured conductance in control being 1. i Dose response for ΔV1/2 of G–V relations to different CP1 concentrations as compared with those of KCNQ1 (dashed line).
The use of Xenopus laevis to obtain oocytes was approved by the Washington University Animal Studies Committee (protocol #20190030). Oocytes were manually dispersed and digested with collagenase (0.5 mg/ml, Sigma-Aldrich, Saint Louis, MO) to remove the follicle cell layer. Stage V or VI oocytes were selected and injected with cRNAs (9.2 ng) of channel or mutations. Especially, to characterize IKs, a mix of cRNAs at a molar ratio 4:1 (KCNQ1:KCNE1) was injected. For KCNQ2/KCNQ3, the molar ratio was 1:1 (KCNQ2:KCNQ3). For sodium channels, a 3:1 molar ratio (β1:NaV1.5) and for calcium channels a weight ratio 1:1:1 (β1:α2/δ1:CaV1.2) was injected, respectively. Injected oocytes were incubated in ND96 solution containing (in mM) 96 NaCl, 2 KCl, 1.8 CaCl2, 1 MgCl2, and 5 HEPES, pH 7.6, supplemented with 2.5 mM Na pyruvate and 1% penicillin–streptomycin, at 18 °C for 3–7 days before recording.
The whole-oocyte ionic currents were recorded with a GeneClamp 500B amplifier (Axon Instruments, CA) or iTEV90 amplifier (HEKA, Germany) and then sampled at 1 kHz and low-pass-filtered at 2 kHz. The Patchmaster software (HEKA, Germany) was used to acquire data. The Kir1.1 current was recorded with a high K^+ bath solution containing (in mM) 96 KCl, 4 NaCl, 1 CaCl2, 2 MgCl2, and 10 HEPES, pH 7.3–7.4. The HCN4 current was recorded in ND66 solution containing (in mM) 66 NaCl, 32 KCl, 1.8 CaCl2, 1 MgCl2, and 5 HEPES, pH 7.6. All the other potassium channels were recorded in ND96 solution. […]

shift of G–V relation (2 µM CP1, 20-s and −80-mV interval pulses): ~ 12 mV
shift of G–V relation to more negative voltages (2 µM CP1, 100-s and −120-mV interval pulses): ~ 13 mV
G/Gmax Mean (Fig. 4b, 2 µM CP1, 0 mV): 0.3833
G/Gmax Mean (Fig. 4b, 2 µM CP1, 20 mV): 0.7035
G/Gmax Mean (Fig. 4b, 2 µM CP1, 40 mV): 0.9619
G/Gmax Mean (Fig. 4b, 2 µM CP1, 60 mV): 1.0000
G/Gmax Mean (Fig. 4b, 2 µM CP1, -20 mV): 0.1567
G/Gmax Mean (Fig. 4b, 2 µM CP1, -40 mV): 0.0500
G/Gmax Mean (Fig. 4b, 2 µM CP1, -60 mV): 0.0188
G/Gmax Mean (Fig. 4b, 2 µM CP1, -80 mV): 0.0090
G/Gmax Mean (Fig. 4b, 2 µM CP1, -100 mV): 0.0050
G/Gmax Mean (Fig. 4b, 2 µM CP1, -120 mV): 0.0140
G/Gmax Mean (Fig. 4f, 10 µM CP1, 0 mV): 0.9498
G/Gmax Mean (Fig. 4f, 10 µM CP1, 10 mV): 0.9622
G/Gmax Mean (Fig. 4f, 10 µM CP1, 20 mV): 0.9768
G/Gmax Mean (Fig. 4f, 10 µM CP1, 30 mV): 0.9888
G/Gmax Mean (Fig. 4f, 10 µM CP1, 40 mV): 0.9959
G/Gmax Mean (Fig. 4f, 10 µM CP1, 50 mV): 1.0000
G/Gmax Mean (Fig. 4f, 10 µM CP1, 60 mV): 0.9995
G/Gmax Mean (Fig. 4f, 10 µM CP1, 70 mV): 0.9975
G/Gmax Mean (Fig. 4f, 10 µM CP1, 80 mV): 0.9882
G/Gmax Mean (Fig. 4f, 10 µM CP1, -10 mV): 0.9293
G/Gmax Mean (Fig. 4f, 10 µM CP1, -20 mV): 0.9108
G/Gmax Mean (Fig. 4f, 10 µM CP1, -30 mV): 0.8947
G/Gmax Mean (Fig. 4f, 10 µM CP1, -40 mV): 0.8796
G/Gmax Mean (Fig. 4f, 10 µM CP1, -50 mV): 0.8652
G/Gmax Mean (Fig. 4f, 10 µM CP1, -60 mV): 0.8490
G/Gmax Mean (Fig. 4f, 10 µM CP1, -70 mV): 0.8309
G/Gmax Mean (Fig. 4f, 10 µM CP1, -80 mV): 0.8109
G/Gmax Mean (Fig. 4f, 10 µM CP1, -90 mV): 0.7850
G/Gmax Mean (Fig. 4f, 10 µM CP1, -100 mV): 0.7801
G/Gmax Mean (Fig. 4f, 10 µM CP1, -110 mV): 0.7703
G/Gmax Mean (Fig. 4f, 10 µM CP1, -120 mV): 0.7614
Current (10 µM CP1, 0 mV): 11.3690 µA
Current (10 µM CP1, 10 mV): 13.1145 µA
Current (10 µM CP1, 20 mV): 14.8276 µA
Current (10 µM CP1, 30 mV): 16.4399 µA
Current (10 µM CP1, 40 mV): 17.8196 µA
Current (10 µM CP1, 50 mV): 18.8339 µA
Current (10 µM CP1, 60 mV): 19.4658 µA
Current (10 µM CP1, 70 mV): 19.7856 µA
Current (10 µM CP1, 80 mV): 19.9691 µA
Current (10 µM CP1, -10 mV): 9.6451 µA
Current (10 µM CP1, -20 mV): 8.0042 µA
Current (10 µM CP1, -30 mV): 6.4510 µA
Current (10 µM CP1, -40 mV): 5.0169 µA
Current (10 µM CP1, -50 mV): 3.6974 µA
Current (10 µM CP1, -60 mV): 2.5078 µA
Current (10 µM CP1, -70 mV): 1.4333 µA
Current (10 µM CP1, -80 mV): 0.5290 µA
Current (10 µM CP1, -90 mV): -0.3014 µA
Current (10 µM CP1, -100 mV): -0.9865 µA
Current (10 µM CP1, -110 mV): -1.5545 µA
Current (10 µM CP1, -120 mV): -2.0910 µA
∆V1/2 of activation induced by CP1 (mean) ([CP1] 1 µM): 14.4504 mV
∆V1/2 of activation induced by CP1 (mean) ([CP1] 2 µM): 15.8525 mV
∆V1/2 of activation induced by CP1 (mean) ([CP1] 3 µM): 21.4391 mV
∆V1/2 of activation induced by CP1 (mean) ([CP1] 5 µM): 41.6182 mV
∆V1/2 of activation induced by CP1 (mean) ([CP1] 6 µM): 46.8783 mV
∆V1/2 of activation induced by CP1 (mean) ([CP1] 10 µM): 97.2701 mV
∆V1/2 of activation induced by CP1 (mean) ([CP1] 15 µM): 120.8217 mV
∆V1/2 of activation induced by CP1 (mean) ([CP1] 20 µM): 143.8484 mV
∆V1/2 of activation induced by CP1 (mean) ([CP1] 25 µM): 174.0381 mV
G/Gcontrol(max) (10 µM CP1, 0 mV): 2.2457
G/Gcontrol(max) (10 µM CP1, 10 mV): 2.2822
G/Gcontrol(max) (10 µM CP1, 20 mV): 2.3257
G/Gcontrol(max) (10 µM CP1, 30 mV): 2.3635
G/Gcontrol(max) (10 µM CP1, 40 mV): 2.3895
G/Gcontrol(max) (10 µM CP1, 50 mV): 2.4063
G/Gcontrol(max) (10 µM CP1, 60 mV): 2.4120
G/Gcontrol(max) (10 µM CP1, 70 mV): 2.4121
G/Gcontrol(max) (10 µM CP1, 80 mV): 2.3902
G/Gcontrol(max) (10 µM CP1, -10 mV): 2.1869
G/Gcontrol(max) (10 µM CP1, -20 mV): 2.1346
G/Gcontrol(max) (10 µM CP1, -30 mV): 2.0892
G/Gcontrol(max) (10 µM CP1, -40 mV): 2.0471
G/Gcontrol(max) (10 µM CP1, -50 mV): 2.0074
G/Gcontrol(max) (10 µM CP1, -60 mV): 1.9645
G/Gcontrol(max) (10 µM CP1, -70 mV): 1.9185
G/Gcontrol(max) (10 µM CP1, -80 mV): 1.8692
G/Gcontrol(max) (10 µM CP1, -90 mV): 1.8061
G/Gcontrol(max) (10 µM CP1, -100 mV): 1.7954
G/Gcontrol(max) (10 µM CP1, -110 mV): 1.7738
G/Gcontrol(max) (10 µM CP1, -120 mV): 1.7540
G/Gmax Mean (Fig. 4d, 2 µM CP1, 0 mV): 0.2264
G/Gmax Mean (Fig. 4d, 2 µM CP1, 20 mV): 0.4604
G/Gmax Mean (Fig. 4d, 2 µM CP1, 40 mV): 0.7375
G/Gmax Mean (Fig. 4d, 2 µM CP1, 60 mV): 0.9406
G/Gmax Mean (Fig. 4d, 2 µM CP1, 80 mV): 1.0000
G/Gmax Mean (Fig. 4d, 2 µM CP1, -20 mV): 0.0874
G/Gmax Mean (Fig. 4d, 2 µM CP1, -40 mV): 0.0291
G/Gmax Mean (Fig. 4d, 2 µM CP1, -60 mV): 0.0147
G/Gmax Mean (Fig. 4d, 2 µM CP1, -80 mV): 0.0247
G/Gmax Mean (Fig. 4d, 2 µM CP1, -100 mV): 0.0692
Structure (SMILES): O=S(=O)([O-])Oc1c(-c2sc3c(ccc4cccc(Cl)c43)c2OS(=O)(=O)[O-])[nH]c2ccc(Br)cc12.[Na+].[Na+] [CP1, DISODIUM 5-BROMO-2-[9-CHLORO-3-(SULFONATOOXY) NAPHTHO [1,2-B] THIEN-2-YL]-1H-INDOL-3-YL SULFATE]
outward current (Icp1/Ictrl) (10 µM CP1, Q1/E1, at +40 mV, individual oocytes): 3.3641 and 3.7408 and 2.3715 and 2.9989 and 4.6393
∆V1/2 (10 µM CP1, Q1/E1, individual oocytes): 64.6738 mV and 84.3167 mV and 109.16 mV and 34.9084 mV and 123.145 mV
τ deact at -120 mV (10 µM CP1 treated, Q1/E1, individual oocytes): 3.5736 s and 3.9322 s and 2.999 s and 3.0124 s and 2.7649 s and 3.45 s and 3.7957 s
